Reference: patent publication US6126940A, “Hair-growing agent comprised of proanthocyanidins” (Kyowa Hakko Kogyo Co., Ltd., priority 1994, dated 2000)

Test system: dd mice
Assay: Acute Toxicity
Assay type: in vivo, mouse (male dd)
Conditions: subcutaneous, 2000 mg/kg, five male dd mice

**Q.** Which mortality does the source give for `Oc1cc(O)c2c(c1)O[C@H](c1ccc(O)c(O)c1)[C@H](O)[C@H]2c1c(O)cc(O)c2c1O[C@H](c1ccc(O)c(O)c1)[C@H](O)C2` [Compound 2, epicatechin-(4β→8)-epicatechin] here?
**A.** none of the mice died
